# Source: article PMC4604124, “In Vitro Characterization of the Pharmacological Properties of the Anti-Cancer Chelator, Bp4eT, and Its Phase I Metabolites” (PLoS ONE, 2015)
# Several values for one entry are separate records, joined by “and”; a condition that tells them apart may be missing. Equal values may be shown once. Read-outs that look alike come from different tables or passages of the source.
# Experiments:
# H9c2 cardiomyoblasts = test: MTT cytotoxicity assay, H9c2 cells; format: cell-based, rat; conditions: for IC50: MTT
# Description: (§1) For cytotoxicity experiments, cancer cells were seeded at a density of 5,000 (MCF-7), 10,000 (HL-60) or 2,000 cells/well (HCT116 and A549) in 96-well plates (TPP) for 24 h/37°C prior to the addition of examined agents. The non-cancerous cells, 3T3 and H9c2 cells, were cultured for 24 h/37°C in 96-well plates at a density of 10,000 cells/well, the medium was then changed to serum- and pyruvate-free DMEM (Sigma-Aldrich) and incubated with the cells for another 24 h/37°C. The cytotoxic effects of Bp4eT and its metabolites were studied at different concentrations after a 72 h/37°C incubation. In order to aid the dissolution of the lipophilic ligands, 0.1% dimethyl sulfoxide (v/v) (DMSO; Sigma-Aldrich) was present in the culture medium of all groups. At this concentration, DMSO had no effect on cellular proliferation or viability.
# (§2) The viability of cells were determined using an MTT assay (Sigma-Aldrich) according to previously established methods. The optical density of soluble MTT was measured at λ = 570 nm, subtracting the λ = 690 nm background using a Tecan Infinite 200M plate reader (Tecan Group, Männedorf, Switzerland). The viability or proliferation of experimental groups was expressed as a percentage of the untreated controls (100%).
# (§3) SigmaStat for Windows 3.5 (Systat Software, San Jose, CA, USA) statistical software package was utilized to analyze results. The data are expressed as the mean ± SD of a given number of experiments. Statistical significance was determined using a one-way ANOVA with a Bonferroni post-hoc test or Student’s t-test. The results were considered to be statistically significant when p < 0.05. The IC50 values were calculated using CalcuSyn 2.0 software (Biosoft, Cambridge, UK). Cell cycle analysis was evaluated using MultiCycle AV Software (Phoenix Flow Systems, San Diego, CA, USA).
# [1] = system: MCF-7 human breast adenocarcinoma cells; test: MTT cytotoxicity assay, MCF-7 cells; format: cell-based; conditions: for IC50: MTT, read-out: IC50
# Description: as §1, §2, §3
# [2] = system: MCF-7 cells prelabeled with 59Fe2-transferrin; test: Mobilization (efflux) of cellular 59Fe; format: cell-based, human; design: Efflux 59Fe / Efflux 59Fe, Ave: unit not given here
# Text: Human transferrin (Sigma) was labeled with ^56Fe or ^59Fe (PerkinElmer, Massachusetts, USA) to produce ^56Fe2-transferrin or ^59Fe2-transferrin (^59Fe2-Tf), respectively, with a final specific activity of 500 pCi/pmol Fe, as previously described. Unbound ^59Fe was removed by exhaustive vacuum dialysis against a large excess of 0.15 M NaCl buffered to pH 7.4 with 1.4% NaHCO3 by standard methods.
# To examine the ability of studied compounds to mobilize cellular ^59Fe from MCF-7 cells, iron efflux experiments were performed using established techniques. In brief, after pre-labeling confluent MCF-7 cells on 6-well plates with 0.75 μM ^59Fe2-Tf for 3 h/37°C, the cells were washed four times with ice-cold PBS and then subsequently incubated with 25 μM of Bp4eT or its metabolites for 3 h/37°C. The overlying medium containing released ^59Fe was then decanted from the cells. Radioactivity was measured in both the cells and the supernatant using a γ-scintillation counter (Wallac Wizard 3, Turku, Finland).
# caspase 9 = test: Caspase activity, luminescent kit, caspase 9; format: cell-based, human; conditions: for kaspáza 9, raw signal / kaspáza 9, signal / viabilita: individual experiments by date; for kaspáza 9, raw signal, průměry / kaspáza 9, % kontroly / kaspáza 9, signal / viabilita, průměry: mean; for kaspáza 9, % kontroly / kaspáza 9, signal / viabilita / kaspáza 9, signal / viabilita, průměry: normalised to viability
# Description: To assess the effect of the compounds on caspase activity, MCF-7 cells were incubated with 100 nM Bp4eT or its metabolites for 3, 24 or 72 h/37°C in 96-well plates, as described above. The cells were then lysed by adding 100 μL of cold lysis buffer (100 mM HEPES, 10 mM CHAPS, 10 mM D-L-dithiothreitol, pH 7.4) to 100 μL of medium in each well. Lysates were immediately frozen at -80°C. Thawed lysates were used to assess caspase activity using luminescent kits for caspases 3/7, 8 and 9 (Promega, Madison, WI, USA). The luminescence was measured using the Tecan Infinite 200M plate reader. Caspase activity in the experimental groups was corrected according to the cellular viability of each group and expressed as a percentage of activity of the untreated control (100%).
structure (smiles),measurement,setting,value
"CCN=CNN=C(c1ccccc1)c1ccccn1 [Bp4eA, N ^3-ethyl-N ^1-[phenyl(pyridin-2-yl)methylene]formamidrazone]","MTT, relative to control (0 = 100)","H9c2 cardiomyoblasts; H9c2, 10 000 b/j, 1 μM, průměr (mean), sheet Bp4eA",96.26
same,"MTT, relative to control (0 = 100)","H9c2 cardiomyoblasts; H9c2, 10 000 b/j, 1 μM, single experiment (date), sheet Bp4eA",96.9641 and 92.8493 and 97.4859 and 95.7195 and 98.2981
same,"MTT, relative to control (0 = 100)","H9c2 cardiomyoblasts; H9c2, 10 000 b/j, 3 μM, průměr (mean), sheet Bp4eA",96.27
same,"MTT, relative to control (0 = 100)","H9c2 cardiomyoblasts; H9c2, 10 000 b/j, 3 μM, single experiment (date), sheet Bp4eA",100.784 and 93.7843 and 97.6949 and 91.6948 and 97.3803
same,"MTT, relative to control (0 = 100)","H9c2 cardiomyoblasts; H9c2, 10 000 b/j, 10 μM, průměr (mean), sheet Bp4eA",95.56
same,"MTT, relative to control (0 = 100)","H9c2 cardiomyoblasts; H9c2, 10 000 b/j, 10 μM, single experiment (date), sheet Bp4eA",96.5102 and 92.1411 and 95.5166 and 98.0809
same,"MTT, relative to control (0 = 100)","H9c2 cardiomyoblasts; H9c2, 10 000 b/j, 30 μM, průměr (mean), sheet Bp4eA",93.18
same,"MTT, relative to control (0 = 100)","H9c2 cardiomyoblasts; H9c2, 10 000 b/j, 30 μM, single experiment (date), sheet Bp4eA",94.6024 and 93.1446 and 95.1622 and 88.8218 and 94.1801
same,"MTT, relative to control (0 = 100)","H9c2 cardiomyoblasts; H9c2, 10 000 b/j, 100 μM, průměr (mean), sheet Bp4eA",76.55
same,"MTT, relative to control (0 = 100)","H9c2 cardiomyoblasts; H9c2, 10 000 b/j, 100 μM, single experiment (date), sheet Bp4eA",76.7908 and 72.9908 and 82.9441 and 73.781 and 76.2525
same,"MTT, relative to control (0 = 100)","H9c2 cardiomyoblasts; H9c2, 10 000 b/j, 300 μM, průměr (mean), sheet Bp4eA",66.55
same,"MTT, relative to control (0 = 100)","H9c2 cardiomyoblasts; H9c2, 10 000 b/j, 300 μM, single experiment (date), sheet Bp4eA",71.4763 and 63.147 and 62.7404 and 68.8465
same,"MTT, relative to control (0 = 100)","H9c2 cardiomyoblasts; H9c2, 10 000 b/j, 1000 μM, průměr (mean), sheet Bp4eA",23.16
same,"MTT, relative to control (0 = 100)","H9c2 cardiomyoblasts; H9c2, 10 000 b/j, 1000 μM, single experiment (date), sheet Bp4eA",17.0741 and 23.4615 and 18.1134 and 33.9931
same,IC50,"H9c2 cardiomyoblasts; H9c2, 10 000 b/j, single experiment (date), sheet Bp4eA, read-out: IC50 měřené",510 µM and 315 µM and 533 µM
same,IC50,"H9c2 cardiomyoblasts; Rattus norvegicus, H9c2, 72 h, H9c2, 72 h/37°C, mean ± SD, n ≥ 4, read-out: IC50",416 ± 122 µM
same,IC50,"H9c2 cardiomyoblasts; Rattus norvegicus, H9c2, H9c2, 10 000 b/j, průměr (mean), sheet Bp4eA, read-out: IC50 měřené",416 µM
same,IC50,"H9c2 cardiomyoblasts; Rattus norvegicus, H9c2, H9c2, 10 000 b/j, single experiment (date), sheet Bp4eA, read-out: IC50 měřené",306 µM
same,"Therapeutic index, IC50 non-cancerous cells / IC50 neoplastic cells",[1]; 3T3/MCF-7,17.3
same,"Therapeutic index, IC50 non-cancerous cells / IC50 neoplastic cells",[1]; H9c2/MCF-7,7.0
same,IC50,"[1]; Homo sapiens, MCF7, 72 h, MCF-7, 72 h/37°C, mean ± SD, n ≥ 4",59.4 ± 8.9 µM
same,IC50,"[1]; Homo sapiens, MCF7, MCF-7, 5 000 b/j, průměr (mean)",59.4 µM
same,IC50,"[1]; Homo sapiens, MCF7, MCF-7, 5 000 b/j, single experiment (by date)",69.9 µM
same,IC50,"[1]; MCF-7, 5 000 b/j, single experiment (by date)",48.9 µM and 62.4 µM and 56.6 µM
same,"MTT, value relative to 0 μM = 100","[1]; MCF-7, 5 000 b/j, koncentrace 1 μM, průměr (mean)",93.04
same,"MTT, value relative to 0 μM = 100","[1]; MCF-7, 5 000 b/j, koncentrace 1 μM, single experiment (by date)",90.8485 and 99.965 and 93.7506 and 93.1688 and 87.4567
same,"MTT, value relative to 0 μM = 100","[1]; MCF-7, 5 000 b/j, koncentrace 3 μM, průměr (mean)",85.43
same,"MTT, value relative to 0 μM = 100","[1]; MCF-7, 5 000 b/j, koncentrace 3 μM, single experiment (by date)",93.874 and 91.0261 and 71.3771
same,"MTT, value relative to 0 μM = 100","[1]; MCF-7, 5 000 b/j, koncentrace 10 μM, průměr (mean)",84.39
same,"MTT, value relative to 0 μM = 100","[1]; MCF-7, 5 000 b/j, koncentrace 10 μM, single experiment (by date)",92.9139 and 90.5956 and 78.0175 and 76.0291
same,"MTT, value relative to 0 μM = 100","[1]; MCF-7, 5 000 b/j, koncentrace 30 μM, průměr (mean)",81.82
same,"MTT, value relative to 0 μM = 100","[1]; MCF-7, 5 000 b/j, koncentrace 30 μM, single experiment (by date)",88.8876 and 87.4579 and 79.9984 and 70.9265
same,"MTT, value relative to 0 μM = 100","[1]; MCF-7, 5 000 b/j, koncentrace 100 μM, průměr (mean)",26.24
same,"MTT, value relative to 0 μM = 100","[1]; MCF-7, 5 000 b/j, koncentrace 100 μM, single experiment (by date)",35.9762 and 29.29 and 21.3398 and 22.2541 and 22.3478
same,"MTT, value relative to 0 μM = 100","[1]; MCF-7, 5 000 b/j, koncentrace 300 μM, průměr (mean)",16.91
same,"MTT, value relative to 0 μM = 100","[1]; MCF-7, 5 000 b/j, koncentrace 300 μM, single experiment (by date)",19.6559 and 17.473 and 16.628 and 13.8677
same,"MTT, value relative to 0 μM = 100","[1]; MCF-7, 5 000 b/j, koncentrace 1000 μM, průměr (mean)",14.02
same,"MTT, value relative to 0 μM = 100","[1]; MCF-7, 5 000 b/j, koncentrace 1000 μM, single experiment (by date)",14.4001 and 13.0033 and 14.9518 and 13.7358
same,"Efflux 59Fe, Ave",[2]; average of all replicates,3.53
same,Efflux 59Fe,[2]; single replicate (three per date),4.0325 and 2.6377 and 3.5208 and 3.7889 and 3.2967 and 3.9821 and 3.9608 and 3.1218 and 3.4276
same,"kaspáza 9, raw signal",caspase 9; 3 hodiny,5948 and 2664.5 and 3083.5 and 2163.5
same,"kaspáza 9, raw signal, průměry",caspase 9; 3 hodiny,3464.88
same,"kaspáza 9, % kontroly",caspase 9; 3 hodiny,101.76 % kontroly
same,"kaspáza 9, signal / viabilita",caspase 9; 3 hodiny,61.4437 and 27.5247 and 31.853 and 22.3493
same,"kaspáza 9, signal / viabilita, průměry",caspase 9; 3 hodiny,35.7927
same,"kaspáza 9, raw signal",caspase 9; 24 hodin,4444 and 2960 and 4885.5 and 3130
same,"kaspáza 9, raw signal, průměry",caspase 9; 24 hodin,3854.88
same,"kaspáza 9, % kontroly",caspase 9; 24 hodin,99.64 % kontroly
same,"kaspáza 9, signal / viabilita",caspase 9; 24 hodin,46.4885 and 30.9645 and 51.1071 and 32.7428
same,"kaspáza 9, signal / viabilita, průměry",caspase 9; 24 hodin,40.3257
same,"kaspáza 9, raw signal",caspase 9; 72 hodin,22564 and 18032 and 23775.5 and 21453
same,"kaspáza 9, raw signal, průměry",caspase 9; 72 hodin,21456.1
same,"kaspáza 9, % kontroly",caspase 9; 72 hodin,106.51 % kontroly
same,"kaspáza 9, signal / viabilita",caspase 9; 72 hodin,242.519 and 193.809 and 255.541 and 230.578
same,"kaspáza 9, signal / viabilita, průměry",caspase 9; 72 hodin,230.612
